Calls of active or inactive are those of the source. How the calls were made is not given here.

The results in this text go back to PubChem BioAssay AID1259407 (Chemical Carcinogenesis Research Information System (CCRIS), 2018).

This series relates to CCRIS mutagenicity, Ames/micronucleus/aberration tests. The experiment in a line: CCRIS mutagenicity studies.
[1] abbreviates: Test System: AMES SALMONELLA TYPHIMURIUM, Strain/Indicator: TA98, Metabolic Activation: NONE, Method: PREINCUBATION
Setting [2] is: Test System: AMES SALMONELLA TYPHIMURIUM, Strain/Indicator: TA98, Metabolic Activation: NONE, Method: STANDARD PLATE.
[3] abbreviates: Test System: AMES SALMONELLA TYPHIMURIUM, Strain/Indicator: TA98, Metabolic Activation: RAT, LIVER, S-9, AROCLOR 1254, Method: PREINCUBATION
The mark [4] stands for this setting: Test System: AMES SALMONELLA TYPHIMURIUM, Strain/Indicator: TA98, Metabolic Activation: RAT, LIVER, S-9, AROCLOR 1254, Method: STANDARD PLATE.
Where [5] appears, read: Test System: AMES SALMONELLA TYPHIMURIUM, Strain/Indicator: TA100, Metabolic Activation: NONE, Method: PREINCUBATION
Where [6] appears, read: Test System: AMES SALMONELLA TYPHIMURIUM, Strain/Indicator: TA100, Metabolic Activation: NONE, Method: STANDARD PLATE.
[7] abbreviates: Test System: AMES SALMONELLA TYPHIMURIUM, Strain/Indicator: TA100, Metabolic Activation: RAT, LIVER, S-9, AROCLOR 1254, Method: PREINCUBATION
Setting [8] is: Test System: AMES SALMONELLA TYPHIMURIUM, Strain/Indicator: TA100, Metabolic Activation: RAT, LIVER, S-9, AROCLOR 1254, Method: STANDARD PLATE.
Where [9] appears, read: Test System: AMES SALMONELLA TYPHIMURIUM, Strain/Indicator: TA97, Metabolic Activation: HAMSTER, LIVER, S-9, AROCLOR 1254 (10 OR 30%), Method: PREINCUBATION
Setting [10] is: Test System: AMES SALMONELLA TYPHIMURIUM, Strain/Indicator: TA97, Metabolic Activation: NONE, Method: PREINCUBATION
The mark [11] stands for this setting: Test System: AMES SALMONELLA TYPHIMURIUM, Strain/Indicator: TA97, Metabolic Activation: RAT, LIVER, S-9, AROCLOR 1254 (10 OR 30%), Method: PREINCUBATION
Setting [12] is: Test System: AMES SALMONELLA TYPHIMURIUM, Strain/Indicator: TA98, Metabolic Activation: HAMSTER, LIVER, S-9, AROCLOR 1254 (10 OR 30%), Method: PREINCUBATION
The mark [13] stands for this setting: Test System: AMES SALMONELLA TYPHIMURIUM, Strain/Indicator: TA98, Metabolic Activation: RAT, LIVER, S-9, AROCLOR 1254 (10 OR 30%), Method: PREINCUBATION
Where [14] appears, read: Test System: AMES SALMONELLA TYPHIMURIUM, Strain/Indicator: TA100, Metabolic Activation: HAMSTER, LIVER, S-9, AROCLOR 1254 (10 OR 30%), Method: PREINCUBATION
[15] abbreviates: Test System: AMES SALMONELLA TYPHIMURIUM, Strain/Indicator: TA100, Metabolic Activation: RAT, LIVER, S-9, AROCLOR 1254 (10 OR 30%), Method: PREINCUBATION
Setting [16] is: Test System: AMES SALMONELLA TYPHIMURIUM, Strain/Indicator: TA1535, Metabolic Activation: HAMSTER, LIVER, S-9, AROCLOR 1254 (10 OR 30%), Method: PREINCUBATION
[17] abbreviates: Test System: AMES SALMONELLA TYPHIMURIUM, Strain/Indicator: TA1535, Metabolic Activation: NONE, Method: PREINCUBATION
Where [18] appears, read: Test System: AMES SALMONELLA TYPHIMURIUM, Strain/Indicator: TA1535, Metabolic Activation: RAT, LIVER, S-9, AROCLOR 1254 (10 OR 30%), Method: PREINCUBATION
Where [19] appears, read: Test System: AMES SALMONELLA TYPHIMURIUM, Strain/Indicator: TA1537, Metabolic Activation: NONE, Method: PREINCUBATION

`Cc1c([N+](=O)[O-])c(C)c([N+](=O)[O-])c(C(C)(C)C)c1[N+](=O)[O-]`: the mutagenic call was “inactive; negative” under setting [1]; “inactive; negative” under setting [2]; “inactive; negative” under setting [3]; “inactive; negative” under setting [4]; “inactive; negative” under setting [5]; “inactive; negative” under setting [6]. Further, the mutagenic call under setting [7] was “inactive; negative”; the mutagenic call under setting [8] is “inactive; negative”; the mutagenic call (Test System: MOUSE LYMPHOMA, Strain/Indicator: L5178Y (TK+/TK-), Metabolic Activation: NONE, Method: SUSPENSION/PLATE) is “inactive; negative”; the mutagenic call (Test System: MOUSE LYMPHOMA, Strain/Indicator: L5178Y (TK+/TK-), Metabolic Activation: RAT, LIVER, S-9, AROCLOR 1242 AND 1254 (2:1), Method: SUSPENSION/PLATE) is “inactive; negative”; the mutagenic call (Test System: UDS RAT HEPATOCYTES, Strain/Indicator: THY INCORP, Metabolic Activation: NONE) was “inactive; negative”; the mutagenic call (Test System: UDS RAT HEPATOCYTES, Strain/Indicator: THY INCORP, Metabolic Activation: NONE, Method: IN VIVO-IN VITRO) is “inactive; negative”.
`O=[N+]([O-])c1c2c(c3ccc4cccc5ccc1c3c45)C=CCC2`: the mutagenic call was “inactive; negative” under setting [2], “inactive; negative” under setting [4], “inactive; negative” under setting [6] and “inactive; negative” under setting [8].
Regarding `O=[N+]([O-])c1[nH]cnc1-c1ccccc1`, under setting [6], the mutagenic call was “active; positive”.
`CCCCCCCCCCCCCCCCCCCC`: the mutagenic call is, setting by setting: under setting [9], “inactive; negative”; under setting [10], “inactive; negative”; under setting [11], “inactive; negative”; under setting [12], “inactive; negative”; under setting [1], “inactive; negative”; under setting [13], “inactive; negative”. Also, the mutagenic call was “inactive; negative” under setting [14]; “inactive; negative” under setting [5]; “inactive; negative” under setting [15]; “inactive; negative” under setting [16]; “inactive; negative” under setting [17]; “inactive; negative” under setting [18]. Further, the mutagenic call is “inactive; negative” (Test System: AMES SALMONELLA TYPHIMURIUM, Strain/Indicator: TA1537, Metabolic Activation: HAMSTER, LIVER, S-9, AROCLOR 1254 (30%), Method: PREINCUBATION); “inactive; negative” under setting [19]; “inactive; negative” (Test System: AMES SALMONELLA TYPHIMURIUM, Strain/Indicator: TA1537, Metabolic Activation: RAT, LIVER, S-9, AROCLOR 1254 (30%), Method: PREINCUBATION).
Consider `CCCCCCC[CH2][Sn]([CH2]CCCCCCC)([S]CC(=O)OCCCCCC(C)C)[S]CC(=O)OCCCCCC(C)C`, for which the mutagenic call reads like this: under setting [9], “inactive; negative”; under setting [10], “inactive; negative”; under setting [11], “inactive; negative”; under setting [12], “inactive; negative”; under setting [1], “inactive; negative”; under setting [13], “inactive; negative”. Further, the mutagenic call under setting [14] was “inactive; negative”; the mutagenic call under setting [5] was “active; positive”; the mutagenic call under setting [15] is “inactive; negative”; the mutagenic call under setting [16] is “inactive; negative”; the mutagenic call under setting [17] is “inactive; negative”; the mutagenic call under setting [18] is “inactive; negative”.
In the case of `[N-]=[N+]=N[C@H](c1ccccc1)[C@@H](O)CO`, the mutagenic call (Test System: AMES SALMONELLA TYPHIMURIUM, Strain/Indicator: TA100, Metabolic Activation: RAT, LIVER, S-9, PCB, Method: PREINCUBATION) was “active; positive”.
With `Cn1c(N)nc2ccccc21`, the mutagenic call under setting [3] was “active; positive” and the mutagenic call under setting [7] is “active; positive”.
As for `COc1ccc(C(=O)Nc2ccccc2)cc1[N+](=O)[O-]`, the mutagenic call runs as follows: (Test System: AMES SALMONELLA TYPHIMURIUM, Strain/Indicator: TA97, Metabolic Activation: HAMSTER, LIVER, S-9, AROCLOR 1254 (10%), Method: PREINCUBATION) “active; positive”; under setting [10], “inactive; negative”; (Test System: AMES SALMONELLA TYPHIMURIUM, Strain/Indicator: TA97, Metabolic Activation: RAT, LIVER, S-9, AROCLOR 1254 (10%), Method: PREINCUBATION) “active; positive”; (Test System: AMES SALMONELLA TYPHIMURIUM, Strain/Indicator: TA98, Metabolic Activation: HAMSTER, LIVER, S-9, AROCLOR 1254 (10%), Method: PREINCUBATION) “active; positive”; under setting [1], “inactive; negative”; (Test System: AMES SALMONELLA TYPHIMURIUM, Strain/Indicator: TA98, Metabolic Activation: RAT, LIVER, S-9, AROCLOR 1254 (10%), Method: PREINCUBATION) “active; positive”. The mutagenic call is “active; positive” (Test System: AMES SALMONELLA TYPHIMURIUM, Strain/Indicator: TA100, Metabolic Activation: HAMSTER, LIVER, S-9, AROCLOR 1254 (10%), Method: PREINCUBATION); “active; positive” under setting [5]; “active; positive” (Test System: AMES SALMONELLA TYPHIMURIUM, Strain/Indicator: TA100, Metabolic Activation: RAT, LIVER, S-9, AROCLOR 1254 (10%), Method: PREINCUBATION); “inactive; negative” (Test System: AMES SALMONELLA TYPHIMURIUM, Strain/Indicator: TA1535, Metabolic Activation: HAMSTER, LIVER, S-9, AROCLOR 1254 (10%), Method: PREINCUBATION); “inactive; negative” under setting [17]; “inactive; negative” (Test System: AMES SALMONELLA TYPHIMURIUM, Strain/Indicator: TA1535, Metabolic Activation: RAT, LIVER, S-9, AROCLOR 1254 (10%), Method: PREINCUBATION). Moreover, the mutagenic call is “active; positive” (Test System: AMES SALMONELLA TYPHIMURIUM, Strain/Indicator: TA1537, Metabolic Activation: HAMSTER, LIVER, S-9, AROCLOR 1254 (10%), Method: PREINCUBATION); “inactive; negative” under setting [19]; “active; positive” (Test System: AMES SALMONELLA TYPHIMURIUM, Strain/Indicator: TA1537, Metabolic Activation: RAT, LIVER, S-9, AROCLOR 1254 (10%), Method: PREINCUBATION).
